According to PMC6656724 (Communications Biology, 2019):

Experiments:
[1] = target: MDR1 (P-glycoprotein) (Homo sapiens, UniProt P08183); type: in vitro ADME; conditions: from effective efflux ratio
Protocol: internal standard at each timepoint. […]
including an analytical internal standard.
Apparent permeability (Papp) values were determined from the relationship: […]
Where V is the volume of each Transwell compartment (apical 125 µL, basolateral 600 µL), and concentrations are the relative MS responses for compound (normalized to internal standard) in the donor chamber before incubation and acceptor chamber at the end of the incubation. Area = area of cells exposed for drug transfer (0.33 cm 2).
Efflux ratios (Papp B>A / Papp A>B) were calculated for each compound from the […]
MDR1-MDCK cell line has been engineered to overexpress the efflux transporter, MDR1 (P-glycoprotein), and a finding of good permeability B>A, but poor […]
order to confirm the involvement of MDR1 in any efflux seen, an “ef fective efflux ratio” (EER) was calculated by comparing compound efflux ratios (ER) in the two cell types, i.e. EER = ER (MDR1-MDCK)/ ER (wild-type MDCK). This ratio illustrates the effect of the over-expressed MDR1 normalised for the background movement of compound through the wild-type cells. […]
Compound recovery from the wells was determined from MS responses (normalized to internal standard) in donor and acceptor chambers at the end of incubation compared to response in the donor chamber pre-incubation. […]

[2] = Plasma protein binding (equilibrium dialysis); type: in vitro ADME; conditions: female, CD1, mouse, read-out: Fraction unbound (blood)
Protocol: for 1 minute and then centrifuged at 3000 rpm in 96-well blocks for 15 minutes (Allegra X12-R, Beckman Coulter, USA). All samples were analysed by means of UPLC/MS/MS on a Xevo TQs micro Mass Spectrometer (Waters Corporation, USA).
The unbound fraction was determined as the ratio of the peak area in artificial CSF to that in brain, with correction for dilution factor according to equation (5)21, […]
((1/f ! ,!""!#$%& ) − 1) + 1/D where D = dilution factor in brain homogenate and fu,apparent is the measured free fraction of diluted brain homogenate.
3.9 Plasma protein binding
In brief, a 96 well equilibrium dialysis apparatus was used to determine the free fraction in plasma for inhibitor 1 (HT Dialysis LLC, Gales Ferry, CT). Membranes (12-14 kDA cut-off) were conditioned in deionised water for 60 minutes, followed by conditioning in 80:20 deionised water:ethanol for 20 minutes, and then rinsed in isotonic buffer before use. Female CD1 mouse plasma was removed from the freezer and allowed to thaw on the day of experiment. […] All samples were analysed by UPLC-MS/MS on a Xevo TQs micro Mass Spectrometer (Waters
Corporation, USA). The unbound fraction was determined as the ratio of the peak area in buffer to that in plasma.

Chain of MDR1 (P-glycoprotein) (P08183 whole entry): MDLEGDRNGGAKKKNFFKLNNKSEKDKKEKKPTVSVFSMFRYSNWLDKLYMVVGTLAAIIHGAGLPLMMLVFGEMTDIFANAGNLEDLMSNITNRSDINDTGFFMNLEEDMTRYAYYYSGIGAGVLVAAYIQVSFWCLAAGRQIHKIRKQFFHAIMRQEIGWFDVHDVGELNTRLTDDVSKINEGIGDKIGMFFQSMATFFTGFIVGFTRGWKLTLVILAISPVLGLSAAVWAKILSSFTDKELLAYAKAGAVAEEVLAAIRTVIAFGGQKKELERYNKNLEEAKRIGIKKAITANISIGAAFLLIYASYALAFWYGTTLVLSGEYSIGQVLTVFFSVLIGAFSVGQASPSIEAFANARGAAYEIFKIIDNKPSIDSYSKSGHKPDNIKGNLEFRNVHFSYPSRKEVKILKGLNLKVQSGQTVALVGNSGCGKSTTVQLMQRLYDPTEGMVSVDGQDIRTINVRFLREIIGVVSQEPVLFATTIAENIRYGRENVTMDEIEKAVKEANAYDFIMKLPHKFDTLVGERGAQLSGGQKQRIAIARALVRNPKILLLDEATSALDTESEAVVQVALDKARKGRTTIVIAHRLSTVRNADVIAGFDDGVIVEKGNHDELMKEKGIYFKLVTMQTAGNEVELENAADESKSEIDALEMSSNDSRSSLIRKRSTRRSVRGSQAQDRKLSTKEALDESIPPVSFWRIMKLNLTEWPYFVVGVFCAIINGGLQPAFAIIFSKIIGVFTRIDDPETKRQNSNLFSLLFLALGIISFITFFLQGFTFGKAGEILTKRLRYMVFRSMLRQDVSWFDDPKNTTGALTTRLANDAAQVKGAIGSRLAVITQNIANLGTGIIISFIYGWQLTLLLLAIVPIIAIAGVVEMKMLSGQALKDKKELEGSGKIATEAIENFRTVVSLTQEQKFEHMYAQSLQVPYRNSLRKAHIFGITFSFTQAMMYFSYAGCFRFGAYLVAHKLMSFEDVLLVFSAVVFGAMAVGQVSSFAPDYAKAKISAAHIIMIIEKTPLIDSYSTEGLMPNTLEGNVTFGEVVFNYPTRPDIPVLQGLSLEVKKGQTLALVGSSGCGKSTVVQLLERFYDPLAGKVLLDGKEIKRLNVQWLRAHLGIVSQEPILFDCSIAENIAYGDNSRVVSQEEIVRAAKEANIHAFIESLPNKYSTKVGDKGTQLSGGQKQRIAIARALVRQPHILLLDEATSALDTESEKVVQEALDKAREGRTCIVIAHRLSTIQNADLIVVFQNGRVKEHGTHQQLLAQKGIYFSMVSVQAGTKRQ

With `Cc1cc2c(c(C)c1Cl)N(CC(=O)O)C(=O)CO2` [compound 1, (6-chloro-5,7-dimethyl-3-oxo-2,3-dihydro-4H-1,4-benzoxazin-4-yl) acetic acid] the “Substrate for P-glycoprotein” value [1] was “not a substrate” and the fraction unbound at 5 h, 10 ug/mL [2] was 0.04.
